Experimental data reported in ChEMBL document CHEMBL4346703, “Structure Overhaul Affords a Potent Purine PI3Kδ Inhibitor with Improved Tolerability” (J Med Chem, 2019).

Columns and labels:
[1] = Plasma clearance in Wistar Han rat at 0.5 mg/kg, iv or 1 mg/kg, po; assay type: ADME, organism-based
[2] = molecular target: T1, Phosphatidylinositol 4,5-bisphosphate 3-kinase catalytic subunit delta isoform (Homo sapiens, UniProt O00329); assay: Inhibition of PI3Kdelta in human whole blood assessed as reduction in antihuman IgE antibody-stimulated CD63 expression preincubated for 30 mins followed by antihuman IgE antibody stimulation and measured after 20 mins by FACS analysis; assay type: tissue-based
T1 sequence (O00329 whole entry): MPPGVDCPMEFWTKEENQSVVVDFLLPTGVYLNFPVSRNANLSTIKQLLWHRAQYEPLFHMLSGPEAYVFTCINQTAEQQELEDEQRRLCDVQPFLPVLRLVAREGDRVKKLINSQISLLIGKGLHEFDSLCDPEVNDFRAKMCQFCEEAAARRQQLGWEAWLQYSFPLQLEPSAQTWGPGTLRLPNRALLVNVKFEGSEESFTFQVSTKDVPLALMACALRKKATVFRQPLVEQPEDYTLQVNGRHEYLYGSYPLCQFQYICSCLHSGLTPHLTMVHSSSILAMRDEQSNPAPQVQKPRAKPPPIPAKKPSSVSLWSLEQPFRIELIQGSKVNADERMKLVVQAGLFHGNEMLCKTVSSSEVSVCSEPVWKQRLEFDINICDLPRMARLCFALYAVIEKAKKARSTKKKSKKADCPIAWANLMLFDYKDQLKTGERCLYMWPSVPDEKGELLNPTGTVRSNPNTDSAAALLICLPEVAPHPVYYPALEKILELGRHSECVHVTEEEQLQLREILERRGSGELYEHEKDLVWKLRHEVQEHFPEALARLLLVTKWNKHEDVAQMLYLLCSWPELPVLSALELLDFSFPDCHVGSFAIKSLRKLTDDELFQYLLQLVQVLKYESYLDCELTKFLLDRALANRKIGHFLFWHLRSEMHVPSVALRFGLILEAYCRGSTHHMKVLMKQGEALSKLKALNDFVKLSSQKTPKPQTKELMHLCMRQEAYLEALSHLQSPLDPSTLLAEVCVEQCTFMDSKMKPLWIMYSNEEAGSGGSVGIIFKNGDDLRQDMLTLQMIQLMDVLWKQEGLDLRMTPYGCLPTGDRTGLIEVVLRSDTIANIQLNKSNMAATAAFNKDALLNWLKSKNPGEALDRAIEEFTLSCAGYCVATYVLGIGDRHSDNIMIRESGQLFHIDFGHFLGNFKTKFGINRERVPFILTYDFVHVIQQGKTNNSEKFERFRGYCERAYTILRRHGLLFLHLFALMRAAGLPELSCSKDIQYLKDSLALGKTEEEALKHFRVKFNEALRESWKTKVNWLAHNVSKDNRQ

[3] = molecular target: cGMP-dependent 3',5'-cyclic phosphodiesterase (Homo sapiens, UniProt O00408); assay: Inhibition of PDE2 (unknown origin)
[4] = molecular target: T1, Phosphatidylinositol 4,5-bisphosphate 3-kinase catalytic subunit delta isoform; assay: Inhibition of PI3Kdelta in human Ramos cells assessed as reduction in anti-IgM-antibody-induced phosphorylation of AKT at Ser473 residue preincubated for 20 mins followed by anti-IgM antibody stimulation and measured after 30 mins by alphascreen assay; assay type: cell-based
[5] = Half-life in Beagle dog; assay type: ADME, Canis lupus familiaris; settings: in vivo
[6] = Toxicity in Beagle dogs assessed as medial necrosis of the arteries by measuring disruption of tunica media by fibrin at 30 mg/kg; assay type: organism-based, Canis lupus familiaris; settings: dog, in vivo
[7] = fAUC in rat at 750 mg/kg/day; assay type: ADME, organism-based; settings: in vivo
[8] = fCmax in Beagle dog at 30 mg/kg; assay type: ADME, organism-based, Canis lupus familiaris; settings: in vivo
[9] = molecular target: PI3-kinase p110-alpha/p85-alpha (Homo sapiens, UniProt P42336); assay: Inhibition of N-terminal His6-tagged recombinant full length human p110alpha/untagged recombinant full length human p85alpha expressed in baculovirus infected Sf21 insect cells using PIP2 as substrate preincubated for 15 mins followed by substrate addition and measured after 1 hr by HTRF assay
[10] = Stability in rat microsomes in the presence of NADPH; assay type: ADME, Microsome
[11] = Inhibition of adenosine transporter in human HeLa cells assessed as reduction in [3H]adenosine uptake preincubated for 30 mins followed by [3H]adenosine addition and measured after 60 mins; assay type: ADME, cell-based
[12] = Unbound volume of distribution in Wistar Han rat; assay type: ADME; settings: in vivo
[13] = Unbound volume of distribution in Beagle dog; assay type: ADME, Canis lupus familiaris; settings: in vivo
[14] = Oral bioavailability in Beagle dog; assay type: ADME, organism-based, Canis lupus familiaris; settings: in vivo
[15] = Intrinsic clearance in Wistar Han rat at 0.5 mg/kg, iv or 1 mg/kg, po; assay type: ADME, organism-based; settings: in vivo
[16] = Toxicity in Beagle dogs assessed as medial necrosis of the arteries by measuring disruption of tunica media by cellular debris at 30 mg/kg; assay type: organism-based, Canis lupus familiaris; settings: dog, in vivo
[17] = Lipophilicity, log D of the compound; assay type: physicochemical; settings: octanol/water
[18] = Toxicity in rat assessed as increase in blood pressure at 750 mg/kg/day; assay type: organism-based; settings: in vivo
[19] = Volume of distribution in Beagle dog; assay type: ADME, Canis lupus familiaris; settings: in vivo
[20] = Stability in human microsomes in the presence of NADPH; assay type: ADME, Microsome
[21] = molecular target: T2, Nuclear receptor subfamily 1 group I member 2 (Homo sapiens, UniProt O75469); assay: Activation of PXR (unknown origin); assay type: ADME
T2 sequence (O75469 whole entry): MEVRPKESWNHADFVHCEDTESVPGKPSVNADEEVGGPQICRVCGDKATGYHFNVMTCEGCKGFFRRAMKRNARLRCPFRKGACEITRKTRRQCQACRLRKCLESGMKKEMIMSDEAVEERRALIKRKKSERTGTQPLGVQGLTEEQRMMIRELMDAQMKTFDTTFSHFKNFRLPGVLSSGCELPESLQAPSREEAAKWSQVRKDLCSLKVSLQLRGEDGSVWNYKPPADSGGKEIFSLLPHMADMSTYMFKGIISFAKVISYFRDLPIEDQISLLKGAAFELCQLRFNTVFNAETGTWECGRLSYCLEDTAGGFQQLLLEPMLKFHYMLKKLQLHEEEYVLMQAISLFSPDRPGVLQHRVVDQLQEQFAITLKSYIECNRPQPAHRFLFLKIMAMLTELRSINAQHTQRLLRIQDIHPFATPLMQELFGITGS

[22] = molecular target: PI3-kinase p110-delta/p85-alpha (Homo sapiens, UniProt O00329); assay: Inhibition of N-terminal His6-tagged recombinant full length human p110delta/untagged recombinant full length human p85alpha expressed in baculovirus infected Sf21 insect cells using PIP2 as substrate preincubated for 15 mins followed by substrate addition and measured after 1 hr by HTRF assay
[23] = Toxicity in Beagle dogs assessed as medial necrosis of the arteries by measuring disruption of tunica media by hemorrhage at 30 mg/kg; assay type: organism-based, Canis lupus familiaris; settings: dog, in vivo
Phosphodiesterase 4 = Phosphodiesterase 4 (Homo sapiens, UniProt P27815+Q08499+Q07343+Q08493); assay: Inhibition of PDE4 (unknown origin); assay type: protein assay
[24] = Plasma clearance in Beagle dog at 0.25 mg/kg, iv or 0.5 mg/kg, po; assay type: ADME, organism-based, Canis lupus familiaris
[25] = molecular target: cAMP and cAMP-inhibited cGMP 3',5'-cyclic phosphodiesterase 10A (Homo sapiens, UniProt Q9Y233); assay: Inhibition of PDE10 (unknown origin)
[26] = Toxicity in rat assessed as increase in heart rate at 750 mg/kg/day; assay type: organism-based; settings: in vivo
[27] = Drug metabolism in dog microsomes assessed as N-dealkylation of pyrazole metabolite; assay type: ADME, Canis lupus familiaris, Microsome
[28] = Volume of distribution in Wistar Han rat; assay type: ADME; settings: in vivo
[29] = Drug metabolism in dog microsomes assessed as oxidation of imidazopyridinone metabolite; assay type: ADME, Canis lupus familiaris, Microsome
[30] = Half-life in Wistar Han rat; assay type: ADME; settings: in vivo
[31] = Oral bioavailability in Wistar Han rat; assay type: ADME, organism-based; settings: in vivo
[32] = Protein binding in human plasma; assay type: ADME, cell-free; settings: read-out: PPB (converted)
[33] = Protein binding in Beagle dog plasma; assay type: ADME, cell-free, Canis lupus familiaris; settings: read-out: PPB (converted)
[34] = Protein binding in Wistar Han rat plasma; assay type: ADME, cell-free; settings: read-out: PPB (converted)
[35] = fCmax in rat at 750 mg/kg/day; assay type: ADME, organism-based; settings: in vivo
Phosphodiesterase 1 = Phosphodiesterase 1 (Homo sapiens, UniProt P54750+Q01064+Q14123); assay: Inhibition of PDE1 (unknown origin); assay type: protein assay
[36] = fAUC in Beagle dog at 30 mg/kg; assay type: ADME, organism-based, Canis lupus familiaris; settings: in vivo
[37] = molecular target: T1, Phosphatidylinositol 4,5-bisphosphate 3-kinase catalytic subunit delta isoform; assay: Inhibition of PI3Kdelta in human whole blood assessed as reduction in anti-CD79b antibody-induced CD69 expression preincubated for 60 mins followed by anti-CD79b antibody stimulation and measured after 3 hrs by FACS analysis; assay type: tissue-based
Phosphodiesterase 3 = Phosphodiesterase 3 (Homo sapiens, UniProt Q14432+Q13370); assay: Inhibition of PDE3 (unknown origin); assay type: protein assay

Chain of cGMP-dependent 3',5'-cyclic phosphodiesterase (O00408 whole entry, canonical isoform): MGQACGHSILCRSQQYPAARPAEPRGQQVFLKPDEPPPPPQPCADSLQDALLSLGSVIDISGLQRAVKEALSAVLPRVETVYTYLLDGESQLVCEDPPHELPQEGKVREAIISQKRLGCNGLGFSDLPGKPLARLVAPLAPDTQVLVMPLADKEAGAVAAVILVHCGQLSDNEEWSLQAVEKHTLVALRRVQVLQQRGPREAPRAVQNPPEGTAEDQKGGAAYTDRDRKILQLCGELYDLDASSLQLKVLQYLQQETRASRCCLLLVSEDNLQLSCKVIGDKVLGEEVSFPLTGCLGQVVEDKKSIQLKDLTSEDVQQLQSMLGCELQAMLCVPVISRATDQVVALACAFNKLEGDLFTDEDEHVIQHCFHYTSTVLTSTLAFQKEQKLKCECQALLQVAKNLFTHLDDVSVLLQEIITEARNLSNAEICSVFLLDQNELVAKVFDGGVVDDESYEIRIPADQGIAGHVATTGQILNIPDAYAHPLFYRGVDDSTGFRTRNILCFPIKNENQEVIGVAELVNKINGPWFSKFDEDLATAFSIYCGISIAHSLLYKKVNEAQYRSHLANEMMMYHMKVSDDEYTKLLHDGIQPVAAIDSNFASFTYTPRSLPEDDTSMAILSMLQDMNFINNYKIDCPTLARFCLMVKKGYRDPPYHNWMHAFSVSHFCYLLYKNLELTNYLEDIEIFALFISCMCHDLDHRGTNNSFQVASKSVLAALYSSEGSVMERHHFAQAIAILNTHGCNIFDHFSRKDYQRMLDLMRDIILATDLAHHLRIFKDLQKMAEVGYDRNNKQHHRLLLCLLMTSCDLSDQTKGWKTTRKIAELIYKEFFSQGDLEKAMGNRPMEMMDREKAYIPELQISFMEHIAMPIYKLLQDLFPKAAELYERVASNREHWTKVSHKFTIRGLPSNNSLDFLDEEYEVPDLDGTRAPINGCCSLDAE
Chain of cAMP and cAMP-inhibited cGMP 3',5'-cyclic phosphodiesterase 10A (Q9Y233 whole entry): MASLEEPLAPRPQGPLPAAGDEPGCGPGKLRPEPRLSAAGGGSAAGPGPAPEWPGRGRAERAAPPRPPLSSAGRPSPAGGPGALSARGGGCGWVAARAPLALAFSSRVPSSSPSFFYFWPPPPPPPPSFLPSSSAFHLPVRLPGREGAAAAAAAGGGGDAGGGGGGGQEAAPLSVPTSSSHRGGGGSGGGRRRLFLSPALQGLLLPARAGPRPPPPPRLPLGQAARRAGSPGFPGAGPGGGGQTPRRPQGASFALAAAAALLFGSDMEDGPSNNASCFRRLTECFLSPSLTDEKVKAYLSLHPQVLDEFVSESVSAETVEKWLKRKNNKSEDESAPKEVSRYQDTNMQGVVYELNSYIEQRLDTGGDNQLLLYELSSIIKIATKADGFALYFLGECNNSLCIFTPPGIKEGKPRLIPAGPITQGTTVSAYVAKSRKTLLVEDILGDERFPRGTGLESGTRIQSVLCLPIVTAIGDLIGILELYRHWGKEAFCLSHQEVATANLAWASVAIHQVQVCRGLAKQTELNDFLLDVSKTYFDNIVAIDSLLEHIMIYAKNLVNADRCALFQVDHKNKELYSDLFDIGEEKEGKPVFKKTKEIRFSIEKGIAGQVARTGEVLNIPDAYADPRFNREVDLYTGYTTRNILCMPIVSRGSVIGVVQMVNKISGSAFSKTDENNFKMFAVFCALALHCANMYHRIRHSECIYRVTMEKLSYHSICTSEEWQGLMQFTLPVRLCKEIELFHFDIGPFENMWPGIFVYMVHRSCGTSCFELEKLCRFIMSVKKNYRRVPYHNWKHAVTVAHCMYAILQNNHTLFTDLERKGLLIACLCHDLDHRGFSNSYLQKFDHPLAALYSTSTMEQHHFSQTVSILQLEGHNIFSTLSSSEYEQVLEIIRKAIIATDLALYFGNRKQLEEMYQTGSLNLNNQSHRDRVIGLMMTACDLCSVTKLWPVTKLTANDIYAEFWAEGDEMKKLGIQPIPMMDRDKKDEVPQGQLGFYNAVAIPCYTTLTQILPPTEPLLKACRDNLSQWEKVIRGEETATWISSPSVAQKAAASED
Chain of PI3-kinase p110-alpha/p85-alpha (P27986 whole entry): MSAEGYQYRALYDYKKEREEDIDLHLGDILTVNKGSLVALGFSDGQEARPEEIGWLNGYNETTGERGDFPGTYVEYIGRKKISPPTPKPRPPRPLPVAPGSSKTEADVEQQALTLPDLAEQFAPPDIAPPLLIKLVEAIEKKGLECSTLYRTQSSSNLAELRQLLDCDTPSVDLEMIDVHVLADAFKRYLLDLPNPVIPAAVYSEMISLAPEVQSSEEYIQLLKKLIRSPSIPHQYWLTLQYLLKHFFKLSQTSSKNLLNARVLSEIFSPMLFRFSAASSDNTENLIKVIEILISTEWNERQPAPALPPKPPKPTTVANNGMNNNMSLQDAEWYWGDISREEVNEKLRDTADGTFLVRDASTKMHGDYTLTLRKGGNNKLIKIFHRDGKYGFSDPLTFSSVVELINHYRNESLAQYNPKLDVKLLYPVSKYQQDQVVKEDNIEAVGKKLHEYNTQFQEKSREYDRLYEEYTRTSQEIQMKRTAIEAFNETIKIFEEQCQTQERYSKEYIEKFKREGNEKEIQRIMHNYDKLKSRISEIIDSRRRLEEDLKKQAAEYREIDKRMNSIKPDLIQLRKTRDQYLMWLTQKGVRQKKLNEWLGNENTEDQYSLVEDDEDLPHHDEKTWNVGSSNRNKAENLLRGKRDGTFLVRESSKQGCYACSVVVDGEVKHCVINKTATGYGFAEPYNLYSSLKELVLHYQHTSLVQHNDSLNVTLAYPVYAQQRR
Chain of PI3-kinase p110-alpha/p85-alpha (P42336 whole entry): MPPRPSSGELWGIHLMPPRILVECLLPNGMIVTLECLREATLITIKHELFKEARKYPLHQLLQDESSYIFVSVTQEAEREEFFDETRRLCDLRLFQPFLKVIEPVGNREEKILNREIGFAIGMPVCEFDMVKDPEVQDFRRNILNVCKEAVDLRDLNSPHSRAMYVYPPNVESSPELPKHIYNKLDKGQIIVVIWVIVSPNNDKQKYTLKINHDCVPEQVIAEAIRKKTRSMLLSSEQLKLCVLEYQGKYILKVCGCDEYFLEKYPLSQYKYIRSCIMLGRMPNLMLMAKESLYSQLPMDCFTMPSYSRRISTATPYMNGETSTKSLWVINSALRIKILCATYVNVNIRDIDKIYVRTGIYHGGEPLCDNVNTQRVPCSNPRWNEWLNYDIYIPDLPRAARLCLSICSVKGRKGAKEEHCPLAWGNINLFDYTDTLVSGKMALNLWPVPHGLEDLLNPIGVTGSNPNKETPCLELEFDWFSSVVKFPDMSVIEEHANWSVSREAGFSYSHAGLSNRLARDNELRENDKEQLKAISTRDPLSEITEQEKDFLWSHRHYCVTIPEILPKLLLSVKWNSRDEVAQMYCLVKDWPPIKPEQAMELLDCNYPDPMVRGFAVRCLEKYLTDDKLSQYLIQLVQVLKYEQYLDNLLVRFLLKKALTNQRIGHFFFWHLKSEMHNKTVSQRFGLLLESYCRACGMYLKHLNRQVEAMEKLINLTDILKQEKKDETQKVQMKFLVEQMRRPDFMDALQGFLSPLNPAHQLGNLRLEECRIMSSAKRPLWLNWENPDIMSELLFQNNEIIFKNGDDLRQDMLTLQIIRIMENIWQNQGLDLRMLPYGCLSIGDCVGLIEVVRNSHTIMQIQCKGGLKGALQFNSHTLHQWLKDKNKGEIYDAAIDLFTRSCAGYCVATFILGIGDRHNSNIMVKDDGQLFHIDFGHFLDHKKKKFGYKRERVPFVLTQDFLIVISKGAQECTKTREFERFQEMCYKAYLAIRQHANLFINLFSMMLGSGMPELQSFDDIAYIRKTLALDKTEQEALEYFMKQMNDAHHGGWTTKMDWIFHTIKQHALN
Chain of PI3-kinase p110-delta/p85-alpha (P27986 whole entry, one chain of several): as the sequence (P27986 whole entry) above

`CCn1ncc(-c2nc3c(N4CCC(n5c(=O)[nH]c6ncccc65)CC4)ncnc3n2C)c1C` showed a clearance [1] of 5.8 mL/min/kg, an IC50 [2] of 790 nM and an IC50 [3] of 4900 nM. The IC50 [4] was 63 nM, the half-life [5] was 1.1 h and the Activity [6] was “Non-Toxic”. The fAUC [7] was 123 µM·h, the fCmax [8] was 0.33 µM and the IC50 [9] was 450 nM. The Stability [10] was “Stable”, the IC50 [11] was 72 nM and the Vdu [12] was 4 L/kg. It also gave a Vdu [13] of 90 L/kg, a bioavailability [14] of 61% and a CL [15] of 60 mL/min/kg. For the same compound, the Activity [16] was “Non-Toxic”, the logD [17] was 1.4 and the Activity [18] was 20 mmHg. For the same compound, the Vd [19] was 4.6 L/kg, the Stability [20] was “Stable” and the Activity [21] was “Not Active”. For the same compound, the IC50 [22] was 6.3 nM, the Activity [23] was “Non-Toxic” and the IC50 (Phosphodiesterase 4) was 1190 nM. The clearance [24] was 46 mL/min/kg, the IC50 [25] was 4010 nM and the Activity [26] was 100 bpm. The Drug metabolism [27] was “Metabolite_Detected”, the Vd [28] was 0.4 L/kg and the Drug metabolism [29] was “Metabolite_Detected”. It also gave a half-life [30] of 1.2 h, a bioavailability [31] of 76% and a fraction unbound [32] of 0.21. The fraction unbound [33] was 0.05, the fraction unbound [34] was 0.1 and the fCmax [35] was 8 µM. For the same compound, the IC50 (Phosphodiesterase 1) was 2350 nM, the fAUC [36] was 4.4 µM·h and the IC50 [37] was 810 nM. The IC50 (Phosphodiesterase 3) was 1030 nM.
